This is an account of results in the NIST ThermoML archive (doi:10.1016/j.tca.2015.02.001).

Numbers after ± are expanded uncertainties.

The conditions of data set [1]: Crystal; DTA.
The nature of data set [2]: Molar enthalpy of transition or fusion. The note with it: Crystal; DSC.

Regarding `CCn1cc[n+](C)c1.[Br-]` [1-ethyl-3-methylimidazolium bromide], in data set [1], the Triple point temperature stood at 340.15 ± 2 K. The “Molar enthalpy of transition or fusion” value in data set [2] worked out at 4.61 ± 0.359 kcal/mol.
The like results for `CCn1cc[n+](C)c1.[Cl-]` [1-ethyl-3-methylimidazolium chloride] were, in that order, 359.15 ± 2 K and 3.39 ± 0.335 kcal/mol.
`CCn1cc[n+](C)c1.[I-]` [1-ethyl-3-methylimidazolium iodide]: the Triple point temperature in data set [1] was determined as 347.15 ± 2 K. In addition, in data set [2], the “Molar enthalpy of transition or fusion” value was found to be 4.04 ± 0.311 kcal/mol.
